This is an account of results in US7018642B2 (The Procter & Gamble Company, priority 2001, dated 2006).

Several values for one entry are separate records, joined by “and”; a condition that tells them apart may be missing. Equal values may be shown once.

In one test the test system is S. epidermidis. In words: 3-piece growth-chamber array (3P-GCA) biofilm growth test on bathroom tile. Type of test: cell-based, Staphylococcus epidermidis. The conditions noted are these: 72 hours; for optical density of extracted crystal violet (biofilm growth): S. epidermidis on standard white matte bathroom tile, two medium exchanges, replicate wells A, B, C, smaller = prevention, inoculated control 1.870-2.387; for biofilm prevention activity in 3P-GCA method (in words): S. epidermidis on white matte bathroom tile. The method, then:
Wells in the block bottom are filled with 0.5–1 mL of the media described in Reference Example 1, and inoculated with 5–10 μL of overnight cultures of the bacterial strains described in Reference Example 1. The block bottom and top that contain a standard-size, white bathroom tile are then aligned and clamped together, and the assembly placed on a tissue culture rotator (VWR Scientific) set at a rotation speed of 1–3 rpm, or in a shaking incubator, at the appropriate temperature, for 24 hours. Optionally, the 1 mL liquid medium in each well is then replaced with fresh medium, and incubation continued for an additional 24 hours; this sequence of medium replacement and continued growth is done from 1–3 times, to generate biofilms of the desired thickness. After growth, the block bottom is removed, the liquid is removed and replaced with 200 μL of a 1% CV solution (in ˜10% ethanol). The block is then reassembled, re-positioned on the tissue culture rotator and incubated with the settings described above for 15–75 minutes to stain the biofilms. The block pieces are disassembled, and the top block that contains the tile surface is rinsed under a gentle stream of deionized water until all unbound dye is visibly removed. Optionally, any excessive dye adsorbed to the sides of the wells of the block bottom is removed using a test tube brush and a commonly available detergent formulation; this helps to reduce any background due to non-specific staining that can sometimes occur. As a faster alternative, the stained block bottom is simply interchanged with a new or pre-cleaned block bottom. Bound dye on the tile surface is then extracted by pipetting 0.5–1.0 mL of a solution of 1% sodium deoxycholate in 95% ethanol (and optionally 4–6 glass beads 1–3 mm in diameter to assist dye removal) into each well, reassembling the block top and bottom, and either repositioning on the tissue culture rotator followed by incubation using the settings described above for 0.5–2 hours, or alternatively, vortexing vigorously for 1–5 minutes. Subsequently, either undiluted or diluted (in ethanol) samples of extracted CV pipetted from the disassembled blocks are transferred to flat bottom, polystyrene microtiter plates and absorbances are measured in a microplate reader, and compared to controls, as described in Reference Example 1. […] Use of the 3P-GCA is the same as for the 2P-GCA described in Reference Example 5, except that when liquid growth media are being replaced in the wells of the block bottom, only one of the lid assemblies is removed. This arrangement has the advantage that if sensitive biofilms are being investigated, they are not disturbed at all during the entire method. If the biofilms being investigated are not sensitive to disturbance, then an additional advantage of the 3P-GCA is that it can be used to grow biofilms on both surfaces 30 of each lid assembly 90, especially if the 3P-GCA is mounted on a tissue culture rotator for biofilm growth, such that liquid growth media contacts both surfaces 30. […] Polypropylene block components are used. Data are reported as optical density measurements for 3 replicates of inoculated wells per compound tested, with 3 inoculated and three uninoculated control well replicates, corresponding to columns 1 (compound 32), 2 (compound 168), 3 (compound 226), 4 (inoculated control), and 5 (uninoculated control). Smaller numbers indicate prevention of biofilm growth.

The subject of test [1] is S. epidermidis strain ATCC 35984. In words: Biofilm prevention screen (96-well microplate, crystal violet). The conditions noted are these: Staphylococcus epidermidis, positive = prevention, negative = enhancement of biofilm formation, quadruplicate, read-out: average percentage reduction of biofilm formed relative to DMSO controls; for inhibition at 32 µM: ATCC35984, 32 μM; for inhibition at 160 µM: ATCC35984, 160 μM; for inhibition at 390 µM: ATCC35984, 390 μM. Type of test: cell-based. In outline: (§1)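 Each strain grown in its own modified medium (PAO1: R2A, no Mg^2+, 0.3–0.5% fructose, 3 μM ferrous ammonium sulfate; ATCC 13525: R2A with pyruvate; ATCC 35984: ¼ TSB, 1% fructose). Compounds at three final concentrations (e.g. 250–500, 160, 32 μM), shaken 16–26 h at 30° C. (pseudomonads) or 37° C. (S. epidermidis). Crystal violet A586; % biofilm reduction versus DMSO, quadruplicate means.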

The test system of test [2] is P. fluorescens strain ATCC 13525. Described as above. The class given is cell-based. The conditions noted are these: Pseudomonas fluorescens, positive = prevention, negative = enhancement of biofilm formation, quadruplicate, read-out: average percentage reduction of biofilm formed relative to DMSO controls; for inhibition at 32 µM: ATCC13525, 32 μM; for inhibition at 160 µM: ATCC13525, 160 μM; for inhibition at 390 µM: ATCC13525, 390 μM. In outline: as §1

With `CCCCCCCCCCNC(=O)[C@@H]1CCCN1` [Compound 32, L-proline n-decyl amide], in the test with S. epidermidis, the “optical density of extracted crystal violet (biofilm growth)” value (“optical density” for short) is 0.175 and 0.244 and 0.207; the “biofilm prevention activity in 3P-GCA method (in words)” value (from here on “biofilm prevention activity”) is “strong biofilm prevention activity”. In addition, in test [1], the inhibition at 32 µM was -3%, the inhibition at 160 µM came out at 100% and the inhibition at 390 µM is 97%. In test [2], the inhibition at 32 µM is 9%, the inhibition at 160 µM worked out at 55% and the inhibition at 390 µM came to 95%.

For `CCCCCCCCCCCCNC(=O)[C@@H]1CCCN1` [Compound 168], in the test with S. epidermidis, the “optical density” value is 1.981 and 1.581 and 1.517; the “biofilm prevention activity” value is listed as “much more modest effect”. In addition, in test [1], the inhibition at 32 µM came to 101%, the inhibition at 160 µM came out at 100% and the inhibition at 390 µM came to 98%. Further, in test [2], the inhibition at 32 µM came out at 26%, the inhibition at 160 µM worked out at 97% and the inhibition at 390 µM was determined as 93%.

In the case of `O=C(NCCCCCCCCCCCCNC(=O)[C@H]1CCCN1)[C@H]1CCCN1` [Compound 226, D-proline 1,12-diaminododecane bisamide], in the test with S. epidermidis, the “optical density” value was 0.202 and 0.269 and 0.147; the “biofilm prevention activity” value is given as “strong biofilm prevention activity”. Further, in test [1], the inhibition at 32 µM worked out at 24%, the inhibition at 160 µM is 101% and the inhibition at 390 µM worked out at 100%. In addition, in test [2], the inhibition at 32 µM was -19%, the inhibition at 160 µM turned out to be 10% and the inhibition at 390 µM stood at 69%.
